According to patent publication US20080261970A1, “Sufonamides and Uses Thereof” (ELIXIR PHARMACEUTICALS, INC., priority 2004, published 2008):
No end group written: not given here.

Tested on: mice
Experiment: fast refeed (fast-refeeding) assay
Assay type: in vivo
Method: In vivo assays. Exemplary in vivo assays include the fast-refeeding assay described in Example 1 and as follows.
Food is removed at 6 pm for an overnight (˜16 hour) fast. Beginning at 10 am on the next morning, mice are administered with either vehicle (e.g., saline+acetic acid, pH=5) or the compound of interest. Mice are then returned to their home cages and pre-weighed food (approximately 90 grams) is immediately returned to the food hoppers in each cage. The weight of the food remaining in the food hoppers is measured at 30 minutes, 1 hour, 2 hours, and 4 hours post compound/vehicle administration. Final body weights are then recorded for the mice.

Substance: substance P (RPKPQQFFGLM; ends and bridges not checked; UniProt P20366 58-68, looked up)
- feeding activity: alters feeding activity
